# Test results from ChEMBL document CHEMBL5370643, “Discovery of MK-1468: A Potent, Kinome-Selective, Brain-Penetrant Amidoisoquinoline LRRK2 Inhibitor for the Potential Treatment of Parkinson's Disease” (J Med Chem, 2023).
# Key:
# [1] = Mutagenicity in Salmonella typhimurium TA100 at 30 to 5000 ug/plate incubated for 48 hrs in presence of Wistar-Han rat S9 fraction by Ames test; type: toxicity, subcellular; conditions: salmonella enterica subsp. enterica serovar typhimurium, s9, 48 h
# [2] = Mutagenicity in Salmonella typhimurium TA98 at 30 to 5000 ug/plate incubated for 48 hrs in absence of Wistar-Han rat S9 fraction by Ames test; type: toxicity; conditions: salmonella enterica subsp. enterica serovar typhimurium, s9, 48 h
# [3] = Mutagenicity in Salmonella typhimurium TA100 at 30 to 5000 ug/plate incubated for 48 hrs in absence of Wistar-Han rat S9 fraction by Ames test; type: toxicity; conditions: salmonella enterica subsp. enterica serovar typhimurium, s9, 48 h
# [4] = Mutagenicity in Salmonella typhimurium TA1535 at 30 to 5000 ug/plate incubated for 48 hrs in presence of Wistar-Han rat S9 fraction by Ames test; type: toxicity, subcellular; conditions: salmonella enterica subsp. enterica serovar typhimurium, s9, 48 h
# [5] = Mutagenicity in Salmonella typhimurium TA98 at 30 to 5000 ug/plate incubated for 48 hrs in presence of Wistar-Han rat S9 fraction by Ames test; type: toxicity, subcellular; conditions: salmonella enterica subsp. enterica serovar typhimurium, s9, 48 h
# [6] = Mutagenicity in Salmonella typhimurium TA1535 at 30 to 5000 ug/plate incubated for 48 hrs in absence of Wistar-Han rat S9 fraction by Ames test; type: toxicity; conditions: salmonella enterica subsp. enterica serovar typhimurium, s9, 48 h
# [7] = Lipophilicity, logD of compound at pH 7 by HT-HPLC/DAD analysis; type: physicochemical; conditions: buffer
# [8] = Total clearance in Wistar-Han rat at 0.1 mg/kg, iv administered as cassette dose by LC-MS/MS analysis; type: ADME, organism-based; conditions: in vivo
# [9] = biological target: Voltage-gated inwardly rectifying potassium channel KCNH2 (Homo sapiens, UniProt Q12809); assay: Inhibition of hERG expressed in CHO cells by QPatch voltage clamp assay
# Voltage-gated inwardly rectifying potassium channel KCNH2, sequence (Q12809 whole entry): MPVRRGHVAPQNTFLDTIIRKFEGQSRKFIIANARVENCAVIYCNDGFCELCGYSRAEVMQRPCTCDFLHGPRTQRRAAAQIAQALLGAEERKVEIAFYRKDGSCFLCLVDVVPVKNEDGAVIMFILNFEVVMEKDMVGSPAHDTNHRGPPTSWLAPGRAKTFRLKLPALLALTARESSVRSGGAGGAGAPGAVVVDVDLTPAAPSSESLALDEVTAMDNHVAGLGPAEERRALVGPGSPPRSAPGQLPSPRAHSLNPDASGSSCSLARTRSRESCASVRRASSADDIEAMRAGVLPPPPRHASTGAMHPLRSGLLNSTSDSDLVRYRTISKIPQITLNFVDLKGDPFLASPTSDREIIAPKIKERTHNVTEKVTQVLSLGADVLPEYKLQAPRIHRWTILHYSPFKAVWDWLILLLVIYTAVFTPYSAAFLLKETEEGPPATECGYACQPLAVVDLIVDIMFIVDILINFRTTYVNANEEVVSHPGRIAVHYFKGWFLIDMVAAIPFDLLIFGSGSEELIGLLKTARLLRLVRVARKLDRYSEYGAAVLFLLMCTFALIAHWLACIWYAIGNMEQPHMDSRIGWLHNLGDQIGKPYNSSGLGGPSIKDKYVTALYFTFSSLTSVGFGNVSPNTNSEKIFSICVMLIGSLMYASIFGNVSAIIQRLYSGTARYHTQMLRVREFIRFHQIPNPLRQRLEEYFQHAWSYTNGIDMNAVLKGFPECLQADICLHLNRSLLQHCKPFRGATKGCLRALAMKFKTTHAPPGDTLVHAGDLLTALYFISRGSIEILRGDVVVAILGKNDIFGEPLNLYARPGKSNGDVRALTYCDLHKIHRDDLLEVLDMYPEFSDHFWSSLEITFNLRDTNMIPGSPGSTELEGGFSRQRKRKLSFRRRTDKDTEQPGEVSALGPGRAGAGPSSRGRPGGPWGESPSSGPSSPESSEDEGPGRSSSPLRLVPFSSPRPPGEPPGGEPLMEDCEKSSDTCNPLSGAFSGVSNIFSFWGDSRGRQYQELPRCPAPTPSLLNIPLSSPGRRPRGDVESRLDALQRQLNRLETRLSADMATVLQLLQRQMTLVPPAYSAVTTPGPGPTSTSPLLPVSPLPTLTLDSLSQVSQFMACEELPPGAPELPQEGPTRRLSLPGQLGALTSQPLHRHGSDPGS
# [10] = Total clearance in Beagle dog at 0.05 mg/kg, iv administered as cassette dose by LC-MS/MS analysis; type: ADME, organism-based, Canis lupus familiaris; conditions: in vivo
# [11] = biological target: Leucine-rich repeat serine/threonine-protein kinase 2 (Homo sapiens) (UniProt Q5S007); assay: Inhibition of LRRK2 in human PBMC using LRRKtide peptide as substrate assessed as Ser935 dephosphorylation preincubated with compound for 15 mins followed by substrate addition and measured after 90 mins in presence of ATP by TR-FRET assay; type: cell-based; conditions: time 105.0 min
# Leucine-rich repeat serine/threonine-protein kinase 2 (Homo sapiens), sequence (Q5S007 whole entry): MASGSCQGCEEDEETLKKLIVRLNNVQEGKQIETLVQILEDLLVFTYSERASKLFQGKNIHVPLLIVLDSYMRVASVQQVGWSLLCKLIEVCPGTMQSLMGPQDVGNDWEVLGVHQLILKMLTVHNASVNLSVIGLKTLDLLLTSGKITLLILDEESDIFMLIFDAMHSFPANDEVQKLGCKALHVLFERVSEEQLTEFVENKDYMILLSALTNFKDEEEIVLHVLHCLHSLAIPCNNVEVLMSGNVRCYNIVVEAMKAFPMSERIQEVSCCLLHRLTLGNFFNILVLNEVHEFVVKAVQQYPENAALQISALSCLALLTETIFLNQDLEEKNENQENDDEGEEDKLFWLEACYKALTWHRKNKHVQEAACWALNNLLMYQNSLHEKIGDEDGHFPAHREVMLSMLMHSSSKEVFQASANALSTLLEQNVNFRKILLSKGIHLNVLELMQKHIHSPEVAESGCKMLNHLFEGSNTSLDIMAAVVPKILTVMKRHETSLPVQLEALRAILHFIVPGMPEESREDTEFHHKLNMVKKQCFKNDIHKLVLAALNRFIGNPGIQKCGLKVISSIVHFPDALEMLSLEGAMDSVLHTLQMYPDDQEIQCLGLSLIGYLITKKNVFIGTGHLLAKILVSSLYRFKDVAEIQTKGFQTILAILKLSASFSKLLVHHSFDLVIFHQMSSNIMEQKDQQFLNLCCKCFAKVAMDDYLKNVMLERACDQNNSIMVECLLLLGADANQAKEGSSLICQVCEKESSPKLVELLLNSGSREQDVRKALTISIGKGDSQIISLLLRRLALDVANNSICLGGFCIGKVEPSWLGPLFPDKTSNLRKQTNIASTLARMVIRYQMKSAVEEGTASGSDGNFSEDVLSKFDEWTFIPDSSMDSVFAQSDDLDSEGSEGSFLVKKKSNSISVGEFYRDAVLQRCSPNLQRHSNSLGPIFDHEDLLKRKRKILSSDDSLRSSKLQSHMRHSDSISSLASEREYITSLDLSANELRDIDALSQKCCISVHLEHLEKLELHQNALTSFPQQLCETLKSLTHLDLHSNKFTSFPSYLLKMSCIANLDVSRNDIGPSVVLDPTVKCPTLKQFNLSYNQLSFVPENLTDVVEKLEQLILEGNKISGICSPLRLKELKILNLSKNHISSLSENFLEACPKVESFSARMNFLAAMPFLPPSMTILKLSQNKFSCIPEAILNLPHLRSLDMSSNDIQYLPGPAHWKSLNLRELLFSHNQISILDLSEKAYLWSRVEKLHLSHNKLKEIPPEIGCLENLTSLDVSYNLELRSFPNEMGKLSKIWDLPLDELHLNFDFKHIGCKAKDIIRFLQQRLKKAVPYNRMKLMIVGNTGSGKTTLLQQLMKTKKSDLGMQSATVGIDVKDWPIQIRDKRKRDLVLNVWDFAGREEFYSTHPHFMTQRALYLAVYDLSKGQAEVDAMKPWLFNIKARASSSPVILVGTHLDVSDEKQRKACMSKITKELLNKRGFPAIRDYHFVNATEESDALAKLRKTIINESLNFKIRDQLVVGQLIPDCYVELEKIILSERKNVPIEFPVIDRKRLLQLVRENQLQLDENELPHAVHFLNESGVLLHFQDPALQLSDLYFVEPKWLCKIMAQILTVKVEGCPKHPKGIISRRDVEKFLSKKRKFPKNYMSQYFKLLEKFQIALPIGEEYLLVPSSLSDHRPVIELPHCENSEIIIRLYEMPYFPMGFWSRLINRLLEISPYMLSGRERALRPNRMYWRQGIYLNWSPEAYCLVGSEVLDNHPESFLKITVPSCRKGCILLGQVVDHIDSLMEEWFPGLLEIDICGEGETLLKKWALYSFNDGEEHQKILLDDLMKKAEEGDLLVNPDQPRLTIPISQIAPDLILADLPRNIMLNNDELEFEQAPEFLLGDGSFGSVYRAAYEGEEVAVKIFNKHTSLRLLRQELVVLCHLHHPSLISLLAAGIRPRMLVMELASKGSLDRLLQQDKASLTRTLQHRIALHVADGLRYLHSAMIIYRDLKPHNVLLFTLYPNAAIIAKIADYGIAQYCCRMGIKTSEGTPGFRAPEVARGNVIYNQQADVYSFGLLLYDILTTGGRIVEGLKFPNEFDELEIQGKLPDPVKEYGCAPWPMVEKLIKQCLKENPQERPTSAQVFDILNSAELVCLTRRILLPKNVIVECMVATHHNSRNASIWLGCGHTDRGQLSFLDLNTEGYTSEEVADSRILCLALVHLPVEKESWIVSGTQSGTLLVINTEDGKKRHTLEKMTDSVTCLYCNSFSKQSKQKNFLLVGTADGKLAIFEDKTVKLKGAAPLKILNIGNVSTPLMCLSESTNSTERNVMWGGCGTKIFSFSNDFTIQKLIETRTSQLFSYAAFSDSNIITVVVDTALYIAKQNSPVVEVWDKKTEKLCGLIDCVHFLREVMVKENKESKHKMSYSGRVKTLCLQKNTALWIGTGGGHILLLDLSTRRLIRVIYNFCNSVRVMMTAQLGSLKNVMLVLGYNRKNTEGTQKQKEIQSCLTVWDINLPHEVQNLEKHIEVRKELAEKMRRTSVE
# [12] = Intrinsic clearance in Wistar-Han rat at 0.1 mg/kg, iv administered as cassette dose by LC-MS/MS analysis; type: ADME, organism-based; conditions: in vivo
# [13] = MRT in Wistar-Han rat at 0.1 mg/kg, iv administered as cassette dose by LC-MS/MS analysis; type: ADME, organism-based; conditions: in vivo
# [14] = MRT in Beagle dog at 0.05 mg/kg, iv administered as cassette dose by LC-MS/MS analysis; type: ADME, organism-based, Canis lupus familiaris; conditions: in vivo
# [15] = biological target: Leucine-rich repeat serine/threonine-protein kinase 2 (Homo sapiens, UniProt Q5S007, G2019S); assay: Inhibition of recombinant N-terminal GST-fused LRRK2 […] mutant (970 to 2527 residues) (unknown origin) using LRRKtide peptide as substrate assessed as inhibition of substrate phosphorylation preincubated with compound for 15 mins followed by substrate addition and measured after 90 mins in presence of ATP by TR-FRET assay
# Leucine-rich repeat serine/threonine-protein kinase 2, sequence (Q5S007 whole entry G2019S, the tested form may be a part): as the sequence (Q5S007 whole entry) above, with G2019S counted along it
# [16] = Intrinsic clearance in Beagle dog at 0.05 mg/kg, iv administered as cassette dose by LC-MS/MS analysis; type: ADME, organism-based, Canis lupus familiaris; conditions: in vivo
# [17] = biological target: T1, Serine/threonine-protein kinase BRSK1 (Homo sapiens, UniProt Q8TDC3); assay: Inhibition of BRSK1 (unknown origin)
# T1 sequence (Q8TDC3 whole entry): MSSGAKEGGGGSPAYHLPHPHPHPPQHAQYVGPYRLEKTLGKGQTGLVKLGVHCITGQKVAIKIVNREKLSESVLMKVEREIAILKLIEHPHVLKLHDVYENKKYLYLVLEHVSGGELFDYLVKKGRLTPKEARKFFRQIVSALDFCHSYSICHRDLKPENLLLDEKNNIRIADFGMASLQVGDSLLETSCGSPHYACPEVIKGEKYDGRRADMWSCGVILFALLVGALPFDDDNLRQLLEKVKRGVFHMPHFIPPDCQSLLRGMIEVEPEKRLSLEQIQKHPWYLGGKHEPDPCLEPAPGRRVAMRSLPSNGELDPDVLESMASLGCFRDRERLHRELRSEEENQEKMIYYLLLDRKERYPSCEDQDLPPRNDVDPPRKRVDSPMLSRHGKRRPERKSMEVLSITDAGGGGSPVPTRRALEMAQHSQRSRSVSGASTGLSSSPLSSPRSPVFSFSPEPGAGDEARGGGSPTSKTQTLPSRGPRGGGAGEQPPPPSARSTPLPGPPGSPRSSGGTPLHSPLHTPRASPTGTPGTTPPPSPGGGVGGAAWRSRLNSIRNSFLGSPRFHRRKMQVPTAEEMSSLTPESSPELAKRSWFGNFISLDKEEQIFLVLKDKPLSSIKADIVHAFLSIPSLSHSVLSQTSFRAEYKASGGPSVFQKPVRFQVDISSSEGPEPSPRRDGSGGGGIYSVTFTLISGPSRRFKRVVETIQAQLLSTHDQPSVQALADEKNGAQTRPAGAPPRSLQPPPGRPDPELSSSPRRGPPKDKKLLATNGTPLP
# [18] = Intrinsic clearance in Wistar-Han rat at 2 mg/kg, iv measured after 24 hrs by LC-MS/MS analysis; type: ADME, organism-based; conditions: in vivo
# [19] = MRT in Wistar-Han rat at 2 mg/kg, iv measured after 24 hrs by LC-MS/MS analysis; type: ADME, organism-based; conditions: in vivo
# [20] = Drug metabolism in dog assessed as amide hydrolysis mediated metabolite formation by MetID analysis; type: ADME, Canis lupus familiaris
# [21] = Drug metabolism in rat assessed as amide hydrolysis mediated metabolite formation by MetID analysis; type: ADME
# [22] = Drug metabolism in rat assessed as oxidative metabolism of piperazine-THF alcohol lysine region fragment by MetID analysis; type: ADME
# [23] = Drug metabolism in dog assessed as oxidative metabolism of piperazine-THF alcohol lysine region fragment by MetID analysis; type: ADME, Canis lupus familiaris
# [24] = Total clearance in Wistar-Han rat at 2 mg/kg, iv measured after 24 hrs by LC-MS/MS analysis; type: ADME, organism-based; conditions: in vivo
# [25] = Oral bioavailability in Wistar-Han rat at 5 mg/kg measured after 24 hrs by LC-MS/MS analysis; type: ADME, organism-based; conditions: in vivo
# [26] = test system: rat Mdrl1 P-gp; assay: Efflux ratio of apparent permeability across basolateral to apical over apical to basolateral side in MDCK cells transfected with rat Mdrl1 P-gp incubated for 3 hrs by LC-MS/MS analysis; conditions: dog, MDCK-MDR1
# [27] = test system: rat Mdr1a P-gp; assay: Apparent permeability across apical to basolateral side in LLC-PK1 cells transfected with rat Mdr1a P-gp incubated for 3 hrs by LC-MS/MS analysis; conditions: pig
# [28] = Unbound brain-to-plasma concentration ratio in iv dosed Wistar-Han rat administered as cassette dose by LC-MS/MS analysis; type: ADME, organism-based; conditions: read-out: K(p,uu,brain)
# [29] = test system: mouse BCRP; assay: Efflux ratio of apparent permeability across basolateral to apical over apical to basolateral side in MDCK-II cells transfected with mouse BCRP incubated for 3 hrs by LC-MS/MS analysis; conditions: dog
# [30] = Oral bioavailability in Wistar-Han rat at 10 mg/kg measured after 24 hrs by LC-MS/MS analysis; type: ADME, organism-based; conditions: in vivo
compound,measurement,setting,value
C[C@@]1(N2CCN(c3cc4cc(N)ncc4cc3Cl)CC2)COC[C@@H]1O,Activity,[1],Non-Toxic
same,Activity,[2],Non-Toxic
same,Activity,[3],Non-Toxic
same,Activity,[4],Non-Toxic
same,Activity,[5],Non-Toxic
same,Activity,[6],Non-Toxic
Cc1cc2cnc(NC(=O)C3CC34CC4)cc2cc1C1CCN([C@]2(C)COC[C@@H]2O)CC1 (some centres not stated),logD,[7],3.6
same,clearance,[8],31 mL/min/kg
same,IC50,[9],4800 nM
same,clearance,[10],10 mL/min/kg
same,fIC50,[11],12 nM
same,CL,[12],241 mL/min/kg
same,MRT,[13],3.2 h
same,MRT,[14],9.8 h
same,IC50,[15],< 0.08 nM
same,CL,[16],76 mL/min/kg
C[C@@]1(N2CCC(c3cc4cc(NC(=O)C5CC5)ncc4cc3Cl)CC2)COC[C@@H]1O,clearance,[8],12 mL/min/kg
same,fIC50,[11],4.5 nM
same,CL,[12],684 mL/min/kg
same,IC50,[17],43 nM
same,MRT,[13],3.2 h
same,IC50,[15],< 0.08 nM
C[C@@]1(N2CCC(c3cc4cc(N)ncc4cc3Cl)CC2)COC[C@@H]1O,Activity,[1],Non-Toxic
same,Activity,[2],Non-Toxic
same,Activity,[3],Non-Toxic
same,Activity,[4],Non-Toxic
same,Activity,[5],Non-Toxic
same,Activity,[6],Non-Toxic
C[C@@]1(N2CCC(c3cc4cc(NC(=O)[C@H]5C[C@@H]5c5ccccn5)ncc4cc3Cl)CC2)COC[C@@H]1O,CL,[18],341 mL/min/kg
same,MRT,[19],5.6 h
same,Drug metabolism,[20],Metabolite_Detected
same,Drug metabolism,[21],Metabolite_Notdetected
same,Drug metabolism,[22],Metabolite_Detected
same,Drug metabolism,[23],Metabolite_Detected
same,clearance,[24],13 mL/min/kg
same,bioavailability,[25],46%
same,fIC50,[11],0.2 nM
CC(C)(O)[C@H]1C[C@H]1C(=O)Nc1cc2cc(C3CCN([C@]4(C)COC[C@@H]4O)CC3)c(Cl)cc2cn1,efflux ratio at 3 h,[26],9
same,clearance,[8],22 mL/min/kg
same,CL,[12],276 mL/min/kg
same,MRT,[13],3.1 h
same,IC50,[15],< 0.08 nM
same,Papp A→B at 3 h,[27],33 ×10⁻⁶ cm/s
Cn1cc(C(=O)Nc2cc3cc(C4CCN([C@]5(C)COC[C@@H]5O)CC4)c(Cl)cc3cn2)cn1,fIC50,[11],112 nM
same,IC50,[15],0.8 nM
Cn1ccc([C@H]2C[C@@H]2C(=O)Nc2cc3cc(C4CCN([C@]5(C)COC[C@@H]5O)CC4)c(Cl)cc3cn2)n1,Kp uu,[28],0.3
same,clearance,[8],21 mL/min/kg
same,fIC50,[11],1.2 nM
same,CL,[12],731 mL/min/kg
same,MRT,[13],2.6 h
CC1(N2CCC(c3cc4cc(NC(=O)C5CC5)ncc4cc3Cl)CC2)COC1,efflux ratio at 3 h,[26],0.9
same,clearance,[8],10 mL/min/kg
same,efflux ratio at 3 h,[29],1.1
same,fIC50,[11],168 nM
same,CL,[12],429 mL/min/kg
same,MRT,[13],3.3 h
same,IC50,[15],3 nM
same,Papp A→B at 3 h,[27],34 ×10⁻⁶ cm/s
C[C@@]1(N2CCC(c3cc4cc(NC(=O)[C@H]5CC56CCOCC6)ncc4cc3Cl)CC2)COC[C@@H]1O,bioavailability,[30],67%
same,CL,[18],875 mL/min/kg
same,MRT,[19],2.7 h
same,clearance,[10],18 mL/min/kg
same,clearance,[24],35 mL/min/kg
same,MRT,[14],12 h
same,CL,[16],422 mL/min/kg
COC(C)(C)[C@@H]1C[C@H]1C(=O)Nc1cc2cc(C3CCN([C@]4(C)COC[C@@H]4O)CC3)c(Cl)cc2cn1,Kp uu,[28],0.3
same,clearance,[8],41 mL/min/kg
same,CL,[12],840 mL/min/kg
same,MRT,[13],2.1 h
Cn1cc([C@H]2C[C@@H]2C(=O)Nc2cc3cc(C4CCN([C@]5(C)COC[C@@H]5O)CC4)c(Cl)cc3cn2)cn1,efflux ratio at 3 h,[26],12
same,clearance,[8],17 mL/min/kg
same,IC50,[9],9500 nM
same,fIC50,[11],0.28 nM
same,CL,[12],302 mL/min/kg
same,MRT,[13],4.4 h
same,IC50,[15],0.5 nM
same,Papp A→B at 3 h,[27],29 ×10⁻⁶ cm/s
